{
  "source": "patent US20180280480A1",
  "about": "“COMPOSITIONS AND PEPTIDES HAVING DUAL GLP-1R AND GLP-2R AGONIST ACTIVITY” (priority 2014, published 2018)",
  "key": {"C57BL/6J mice [1]": {"tested_on": "C57BL/6J mice", "assay": "GLP1R-GLP2R dual agonist compound study: oral glucose tolerance test", "assay_type": "in vivo", "protocol": "On day 7, an oral glucose tolerance test (OGTT) was performed. Animals were mildly fasted as all food was removed 4 hours prior to the oral glucose load. Vehicle (SC) and compounds were administered subcutaneously (SC) 2 hours prior to the OGTT. At t=0 mice received an oral glucose load (2 g/kg; 4 ml/kg; 500 mg/ml, Fresenius Kabi, Sweden). Glucose was given as gavage via a gastrically-placed tube connected to a syringe ensuring accurate dosing. Blood glucose was measured from tail vein blood before glucose (at t=−120 and 0 min, baseline) and after glucose administration at t=15, 30, 60 and 120 min. Blood samples (tail vein) was collected into 10 μl heparinized glass capillary tubes and immediately suspended in buffer (0.5 ml of glucose/lactate system solution (EKF-diagnostics, Germany) and analyzed for glucose on the test day using a BIOSEN c-Line glucose meter (EKF-diagnostics, Germany) according to manufacturer's instructions. Results from the OGTT are listed below in Table 11."}, "C57BL/6J mice [2]": {"tested_on": "C57BL/6J mice", "assay": "GLP1R-GLP2R dual agonist compound study: gut wet weight", "assay_type": "in vivo", "excerpt": "On study day 8, the mice were terminated and the GI tract was removed for determination of the gut wet weight. The gut wet weight results are listed below in Table 12."}, "[3]": {"tested_on": "diabetic db/db (BKS.Cg-m+/+Leprdb/J) male mice", "assay": "Oral glucose tolerance test in diabetic db/db mice", "assay_type": "in vivo", "conditions": "for Blood glucose during an oral glucose tolerance test. Area under the curve (AUC) −240 to 240 min.: Day 56, mean ± S.E.M.", "protocol": "(§1) A total of forty-six (46) diabetic db/db (BKS.Cg-m+/+Leprdb/J) male mice, 5 weeks old at arrival, was obtained from Janvier (France). The mice were acclimatized for two weeks in their new environment with free access to normal chow (Altromin 1324, Brogaarden A/S, Gentofte, Denmark) and domestic quality tap water. They were housed in groups of n=2 in a light-, temperature-, and humidity-controlled room (12-hour light: 12-hour dark cycle, lights On/Off at 04.00/16.00 h; 22±1° C.; 50±10% relative humidity). During the habituation period animals was accustomed to the experimental paradigm.\n(§2) Baseline, free fed blood glucose samples were obtained bi-weekly prior to study start (blood was collected from the tail vein) in order to screen for the diabetic state. The 40 animals closest to the mean BG/BW value at day −3 were randomized into 4 groups (n=10/group; the remaining 6 animals was be discarded from the main study): Group 1: Vehicle, BID, SC. Group 2: SEQ ID NO 6, 50 nmol/kg, BID, SC. Group 3: SEQ ID NO 6, 250 nmol/kg, BID, SC. […] During day 0-58 of the experiment, animals received a subcutaneous dosing twice daily at 06.00-08.00 hours and again between 02.00-04.00 hours. Dose volume was 5 ml/kg.\n(§3) On experimental day 56 an oral glucose tolerance test was performed. Animals were mildly fasted as food was removed 4 hours prior to administration of the glucose bolus. Compounds were administered 45 minutes prior to the OGTT. At t=0, mice received an oral glucose load of 2 g/kg glucose (Glucose 200 mg/ml, Fresenius Kabi, Sweden). Glucose was given as gavage via a gastrically placed tube connected to a syringe ensuring accurate dosing. Blood samples were collected from the tail vein and blood-glucose was measured at time points −60, 0, 15, 30, 60, 120 and 240 minutes after the glucose administration. Samples for measuring HbA1c was taken in parallel with blood glucose at t=−60 minutes. Mice were re-fed after the last blood sampling."}, "GLP-2R": {"target": "T1, GLP-2R (Homo sapiens, UniProt O95838)", "T1 sequence (O95838 1-553)": "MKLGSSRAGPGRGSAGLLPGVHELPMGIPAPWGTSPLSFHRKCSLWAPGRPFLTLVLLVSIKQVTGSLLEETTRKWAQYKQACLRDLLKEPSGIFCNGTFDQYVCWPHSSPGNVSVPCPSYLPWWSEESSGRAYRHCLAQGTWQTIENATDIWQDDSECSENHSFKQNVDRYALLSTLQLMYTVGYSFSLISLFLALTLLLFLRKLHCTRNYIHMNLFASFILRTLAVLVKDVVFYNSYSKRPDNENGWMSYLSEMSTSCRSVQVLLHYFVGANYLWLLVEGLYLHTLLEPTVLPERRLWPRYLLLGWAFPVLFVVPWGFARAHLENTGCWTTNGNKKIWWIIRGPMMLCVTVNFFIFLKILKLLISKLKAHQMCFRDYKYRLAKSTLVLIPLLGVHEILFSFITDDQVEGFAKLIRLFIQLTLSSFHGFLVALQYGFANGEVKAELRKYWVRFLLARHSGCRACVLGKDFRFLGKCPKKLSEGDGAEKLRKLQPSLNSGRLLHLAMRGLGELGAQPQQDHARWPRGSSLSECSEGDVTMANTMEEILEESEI", "assay": "GLP2 receptor efficacy assay (in vitro functional screen, Euroscreen or DiscoveRx)", "conditions": "Table 1"}, "[4]": {"tested_on": "diabetic db/db (BKS.Cg-m+/+Leprdb/J) male mice", "assay": "Fed blood glucose and HbA1c in diabetic db/db mice", "assay_type": "in vivo", "conditions": "for Blood glucose, fed state / HbA1c: Day 56, mean ± S.E.M.", "protocol": "as §1, §2, §3"}},
  "data": [
    {"substance": "R^1-HGDGSFTSELSTYLDALAARDFIAWLIQTKITDR^2 [SEQ ID NO 6]", "values": [
      {"measurement": "Oral glucose tolerance test AUC, 0-120 min", "setting": "C57BL/6J mice [1]; Day 7, 3.0 mg/kg BID SC, glucose 2 g/kg oral, mean ± S.E.M.", "result": "523 ± 112", "unit": "mmol·min/L"},
      {"measurement": "blood glucose compared to vehicle and teduglutide", "setting": "C57BL/6J mice [1]; dosed twice daily for 7 days", "result": "significantly reduced fasting blood glucose"},
      {"measurement": "Gut wet weight", "setting": "C57BL/6J mice [2]; Day 8, 3.0 mg/kg BID SC, mean ± S.E.M.", "result": "3.8 ± 0.3", "unit": "g"},
      {"measurement": "gut wet weight compared to vehicle and teduglutide", "setting": "C57BL/6J mice [2]; dosed twice daily for 8 days", "result": "significantly increased the gut wet weight"},
      {"measurement": "glucose tolerance compared to liraglutide", "setting": "[3]; 250 nmol/kg, P=0.03, Student's t-test", "result": "even further improved glucose tolerance compared to animals treated with liraglutide"},
      {"measurement": "Blood glucose during an oral glucose tolerance test. Area under the curve (AUC) −240 to 240 min.", "setting": "[3]; 50 nmol/kg BID SC", "result": "3543 ± 469", "unit": "mmol·min/L"},
      {"measurement": "Blood glucose during an oral glucose tolerance test. Area under the curve (AUC) −240 to 240 min.", "setting": "[3]; 250 nmol/kg BID SC", "result": "2472 ± 119", "unit": "mmol·min/L"},
      {"measurement": "ranking of GLP-2 receptor potency", "setting": "GLP-2R", "result": "most potent GLP-2 receptor agonist"},
      {"measurement": "effect on fed-state blood glucose, HbA1c and glucose tolerance", "setting": "[4]; 8 weeks of treatment, db/db mice", "result": "reduction in fed-state blood glucose, HbA1c levels as well as an improving of glucose tolerance in a dose dependent manner"},
      {"measurement": "Blood glucose, fed state", "setting": "[4]; 50 nmol/kg BID SC", "result": "7.2 ± 1.0", "unit": "mmol/L"},
      {"measurement": "HbA1c", "setting": "[4]; 50 nmol/kg BID SC", "result": "5.0 ± 0.2", "unit": "%"},
      {"measurement": "Blood glucose, fed state", "setting": "[4]; 250 nmol/kg BID SC", "result": "5.9 ± 0.4", "unit": "mmol/L"},
      {"measurement": "HbA1c", "setting": "[4]; 250 nmol/kg BID SC", "result": "4.4 ± 0.1", "unit": "%"}
    ]}
  ]
}
